Laboratory results reported in the supplement of paper PMC8617591.

Columns and labels:
[1] = test system: Mycobacterium tuberculosis Erdman (autoluminescent); assay: total FIC50 (Loewe) at 50% inhibition, three-drug combination (log2); higher = more antagonistic
Description: (§1)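 DiaMOND equipotent three-drug combination dose responses (10 doses, 1.5- or 2-fold spacing, centred on IC90) against autoluminescent M. tuberculosis Erdman in 8 in vitro models. Read-out is OD600, or luminescence for the intracellular and dormancy models, normalised to untreated wells. Hill-fit Einf, AUC25 and GRinf are potency metrics; FIC50 and FIC90 are total Loewe fractional inhibitory concentrations as log2 (negative = synergy).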

[2] = test system: Mycobacterium tuberculosis Erdman (autoluminescent); assay: AUC25, normalised area under dose response up to IC25 (three-drug combination) (fraction (0-1)); higher = more potent at low dose
Description: as §1

[3] = test system: Mycobacterium tuberculosis Erdman (autoluminescent); assay: GRinf, maximum normalised growth rate inhibition (three-drug combination) (unitless (-1 to 1)); higher = less effect (negative = killing)
Description: as §1

[4] = test system: Mycobacterium tuberculosis Erdman (autoluminescent); assay: Einf, fitted maximum growth inhibition of three-drug combination (fraction); higher = stronger maximal inhibition
Description: as §1

[5] = test system: Mycobacterium tuberculosis Erdman (autoluminescent); assay: total FIC90 (Loewe) at 90% inhibition, three-drug combination (log2); higher = more antagonistic
Description: as §1

[6] = in vitro model: acidic pH 5.7, time point: constant (~7 days, model-specific)
[7] = in vitro model: acidic pH 5.7, time point: terminal (~4-5 doublings, model-specific)
[8] = in vitro model: butyrate, time point: constant (~7 days, model-specific)
[9] = in vitro model: butyrate, time point: terminal (~4-5 doublings, model-specific)
[10] = in vitro model: cholesterol 0.05 mM, time point: constant (~7 days, model-specific)
[11] = in vitro model: cholesterol 0.05 mM, time point: terminal (~4-5 doublings, model-specific)
[12] = in vitro model: cholesterol-high 0.2 mM, time point: constant (~7 days, model-specific)
[13] = in vitro model: cholesterol-high 0.2 mM, time point: terminal (~4-5 doublings, model-specific)
[14] = in vitro model: dormancy (butyrate + nitrate, low O2), time point: constant (~7 days, model-specific)
[15] = in vitro model: dormancy (butyrate + nitrate, low O2), time point: terminal (~4-5 doublings, model-specific)
[16] = in vitro model: standard 7H9 glycerol, time point: constant = terminal
[17] = in vitro model: valerate, time point: constant (~7 days, model-specific)
[18] = in vitro model: valerate, time point: terminal (~4-5 doublings, model-specific)
[19] = in vitro model: intracellular J774, time point: constant = terminal

COc1nc2ccc(Br)cc2cc1[C@@H](c1ccccc1)[C@@](O)(CCN(C)C)c1cccc2ccccc12 [bedaquiline] + CC(C)/N=c1\cc2n(-c3ccc(Cl)cc3)c3ccccc3nc-2cc1Nc1ccc(Cl)cc1 [clofazimine] + CC[C@@H](CO)NCCN[C@@H](CC)CO [ethambutol]
total FIC50 [1, 6]: 0.516
total FIC50 [1, 7]: 0.534
total FIC50 [1, 8]: 0.078
total FIC50 [1, 9]: 0.111
total FIC50 [1, 10]: 0.0426
total FIC50 [1, 11]: 0.424
total FIC50 [1, 12]: 0.329
total FIC50 [1, 13]: 0.543
total FIC50 [1, 14]: 0.788
total FIC50 [1, 15]: 0.238
total FIC50 [1, 16]: -0.254
total FIC50 [1, 17]: 0.469
total FIC50 [1, 18]: 0.16
AUC25 [2, 6]: 0.0844
AUC25 [2, 7]: 0.0687
AUC25 [2, 8]: 0.0618
AUC25 [2, 9]: 0.0476
AUC25 [2, 10]: 0.0892
AUC25 [2, 11]: 0.117
AUC25 [2, 12]: 0.0568
AUC25 [2, 13]: 0.0708
AUC25 [2, 14]: 0.102
AUC25 [2, 15]: 0.0994
AUC25 [2, 16]: 0.0939
AUC25 [2, 17]: 0.107
AUC25 [2, 18]: 0.0804
GRinf [3, 6]: -0.216
GRinf [3, 7]: -0.273
GRinf [3, 8]: -0.0931
GRinf [3, 9]: -0.104
GRinf [3, 10]: -0.109
GRinf [3, 11]: -0.32
GRinf [3, 12]: -0.788
GRinf [3, 13]: -0.736
GRinf [3, 14]: 0.429
GRinf [3, 15]: -0.239
GRinf [3, 19]: -0.72
GRinf [3, 16]: -0.0889
GRinf [3, 17]: -0.0899
GRinf [3, 18]: -0.0795
Einf [4, 6]: 0.852
Einf [4, 7]: 0.969
Einf [4, 8]: 0.945
Einf [4, 9]: 0.976
Einf [4, 10]: 0.762
Einf [4, 11]: 0.937
Einf [4, 12]: 0.996
Einf [4, 13]: 1
Einf [4, 14]: 0.82
Einf [4, 15]: 0.991
Einf [4, 19]: 0.992
Einf [4, 16]: 0.965
Einf [4, 17]: 0.947
Einf [4, 18]: 0.962
total FIC90 [5, 7]: 0.129
total FIC90 [5, 9]: -0.667
total FIC90 [5, 13]: 0.542
total FIC90 [5, 15]: 0.0433
total FIC90 [5, 19]: -0.364
total FIC90 [5, 18]: -0.225

NNC(=O)c1ccncc1 [isoniazid] + COc1c(N2C[C@@H]3CCCN[C@@H]3C2)c(F)cc2c(=O)c(C(=O)O)cn(C3CC3)c12 [moxifloxacin] + CO[C@H]1/C=C/O[C@@]2(C)Oc3c(C)c(O)c4c(O)c(c(/C=N/N5CCN(C)CC5)c(O)c4c3C2=O)NC(=O)/C(C)=C\C=C\[C@H](C)[C@H](O)[C@@H](C)[C@@H](O)[C@@H](C)[C@H](OC(C)=O)[C@@H]1C [rifampicin]
total FIC50 [1, 6]: 0.568
total FIC50 [1, 7]: 0.624
total FIC50 [1, 8]: 0.315
total FIC50 [1, 9]: 0.345
total FIC50 [1, 10]: 0.719
total FIC50 [1, 11]: 1.04
total FIC50 [1, 12]: 0.265
total FIC50 [1, 13]: 0.508
total FIC50 [1, 14]: 0.163
total FIC50 [1, 15]: 0.14
total FIC50 [1, 16]: 0.736
total FIC50 [1, 17]: 0.773
total FIC50 [1, 18]: 0.731
AUC25 [2, 6]: 0.0693
AUC25 [2, 7]: 0.0605
AUC25 [2, 8]: 0.104
AUC25 [2, 9]: 0.0772
AUC25 [2, 10]: 0.0843
AUC25 [2, 11]: 0.0746
AUC25 [2, 12]: 0.0802
AUC25 [2, 13]: 0.0682
AUC25 [2, 14]: 0.0766
AUC25 [2, 15]: 0.0621
AUC25 [2, 16]: 0.0275
AUC25 [2, 17]: 0.0382
AUC25 [2, 18]: 0.0263
GRinf [3, 6]: -0.0692
GRinf [3, 7]: -0.11
GRinf [3, 8]: -0.00353
GRinf [3, 9]: 0.000303
GRinf [3, 10]: 0.0201
GRinf [3, 11]: -0.125
GRinf [3, 12]: -0.196
GRinf [3, 13]: -0.836
GRinf [3, 14]: 0.232
GRinf [3, 15]: -0.102
GRinf [3, 19]: -0.238
GRinf [3, 16]: 0.197
GRinf [3, 17]: 0.0264
GRinf [3, 18]: 0.0382
Einf [4, 6]: 0.835
Einf [4, 7]: 0.974
Einf [4, 8]: 0.934
Einf [4, 9]: 0.969
Einf [4, 10]: 0.603
Einf [4, 11]: 0.87
Einf [4, 12]: 0.879
Einf [4, 13]: 1
Einf [4, 14]: 0.882
Einf [4, 15]: 0.98
Einf [4, 19]: 0.969
Einf [4, 16]: 0.873
Einf [4, 17]: 0.865
Einf [4, 18]: 0.93
total FIC90 [5, 7]: 0.457
total FIC90 [5, 8]: 0.977
total FIC90 [5, 9]: 0.38
total FIC90 [5, 11]: 0.125
total FIC90 [5, 13]: 0.443
total FIC90 [5, 14]: -0.336
total FIC90 [5, 15]: 0.342
total FIC90 [5, 19]: 0.594
total FIC90 [5, 18]: 0.407

COc1c(N2C[C@@H]3CCCN[C@@H]3C2)c(F)cc2c(=O)c(C(=O)O)cn(C3CC3)c12 [moxifloxacin] + CO[C@H]1/C=C/O[C@@]2(C)Oc3c(C)c(O)c4c(O)c(c(/C=N/N5CCN(C6CCCC6)CC5)c(O)c4c3C2=O)NC(=O)/C(C)=C\C=C\[C@H](C)[C@H](O)[C@@H](C)[C@@H](O)[C@@H](C)[C@H](OC(C)=O)[C@@H]1C [rifapentine] + CO[C@H]1/C=C/O[C@@]2(C)Oc3c(C)c(O)c4c(O)c(c(/C=N/N5CCN(C)CC5)c(O)c4c3C2=O)NC(=O)/C(C)=C\C=C\[C@H](C)[C@H](O)[C@@H](C)[C@@H](O)[C@@H](C)[C@H](OC(C)=O)[C@@H]1C [rifampicin]
total FIC50 [1, 6]: 0.153
total FIC50 [1, 7]: 0.25
total FIC50 [1, 8]: 0.138
total FIC50 [1, 9]: 0.217
total FIC50 [1, 10]: 0.609
total FIC50 [1, 11]: 0.426
total FIC50 [1, 12]: 0.356
total FIC50 [1, 13]: 0.707
total FIC50 [1, 14]: 0.441
total FIC50 [1, 15]: 0.539
total FIC50 [1, 16]: 0.381
total FIC50 [1, 17]: 0.542
total FIC50 [1, 18]: 0.547
AUC25 [2, 6]: 0.0724
AUC25 [2, 7]: 0.0677
AUC25 [2, 8]: 0.102
AUC25 [2, 9]: 0.0922
AUC25 [2, 10]: 0.101
AUC25 [2, 11]: 0.0956
AUC25 [2, 12]: 0.0581
AUC25 [2, 13]: 0.0631
AUC25 [2, 14]: 0.0643
AUC25 [2, 15]: 0.0509
AUC25 [2, 16]: 0.0451
AUC25 [2, 17]: 0.0421
AUC25 [2, 18]: 0.0285
GRinf [3, 6]: 0.0128
GRinf [3, 7]: -0.122
GRinf [3, 8]: 0.109
GRinf [3, 9]: 0.0591
GRinf [3, 10]: 0.0182
GRinf [3, 11]: -0.0633
GRinf [3, 12]: -0.0146
GRinf [3, 13]: -0.758
GRinf [3, 14]: 0.252
GRinf [3, 15]: -0.14
GRinf [3, 19]: -0.11
GRinf [3, 16]: 0.307
GRinf [3, 17]: 0.0605
GRinf [3, 18]: 0.041
Einf [4, 6]: 0.838
Einf [4, 7]: 0.973
Einf [4, 8]: 0.883
Einf [4, 9]: 0.952
Einf [4, 10]: 0.593
Einf [4, 11]: 0.891
Einf [4, 12]: 0.825
Einf [4, 13]: 1
Einf [4, 14]: 0.868
Einf [4, 15]: 0.977
Einf [4, 19]: 0.952
Einf [4, 16]: 0.821
Einf [4, 17]: 0.846
Einf [4, 18]: 0.934
total FIC90 [5, 7]: 0.137
total FIC90 [5, 8]: 2.35
total FIC90 [5, 9]: 0.559
total FIC90 [5, 11]: 1.76
total FIC90 [5, 13]: 0.468
total FIC90 [5, 14]: 0.199
total FIC90 [5, 15]: 0.615
total FIC90 [5, 19]: 1.1
total FIC90 [5, 18]: 0.3
